The subject of one experiment is mice. Briefly: Antiepileptic effect against kainate administered to mice. The class given is in vivo, mice (FVB/NHan). Conditions: KA 25 mg/kg i.p. An excerpt: It is known that the administration of an excitotoxic substance to animals induces, in some cases, epileptic seizures and convulsions. As a result the inventors decided to investigate if the neuroprotective effect of (1S,3R,7S,8S,8aR)-1,2,3,7,8,8a-hexahydro-3,7-dimethyl-8-[2-[(2R,4R)-tetrahydro-4-hydroxy-6-oxo-2H-pyran-2-yl]ethyl-1-naphthalenyl 2,2-dimethylpropanoate (NST0005) was accompanied by an antiepileptic effect caused by an excitotoxic substance.
(§1) All the animals included during the experimental process were 12-week old males of the FVB/NHan strain. The experiments were carried out strictly following the Guidance on the Operation of Animals (Scientific Procedures, Act. 1986). The animals had their respective quarantine period and were treated with maximum precaution to minimize possible contaminations for inoculations and handling.
The animals were inoculated intraperitoneally with 25 mg/kg of kainate (KA) dissolved in PBS. Nine animals were pretreated at 24 and 0.5 hours before the inoculation with KA by means of intraperitoneal injection with PBS (PBS+KA administration regimen) and 9 were pretreated at 24 and 0.5 hours before the inoculation with KA by means of intraperitoneal injection with NST0005 at a dose of 50 mg/kg (NST0005+KA administration regimen). After the inoculation, the animals were individually housed in trays to monitor them. The maximum epilepsy level of the animals according to Racine's scale was recorded during the observation every ten minutes and for at least 120 minutes post-inoculation (m.p.i.).
Comparative studies of the epileptogenic phenomena between the treatment with PBS (PBS+KA) and with NST0005 (NST0005+KA) were subsequently conducted, the data of which are shown in Table 1.

In the next experiment the test system is hippocampus of mice. Description: Neuroprotection in the hippocampus of mice after kainate (histopathology). The class given is in vivo, mice (FVB/NHan). Conditions: KA 25 mg/kg i.p., NST0005 50 mg/kg i.p. daily, 2 days before and 7 days after KA. The method, then:
as §1
Sixteen animals were used in this assay and the treatments were all carried out by intraperitoneal (i.p.) route with a volume of 100 μl, according to the following regimens: • i) PBS+PBS+PBS regimen: 4 animals were initially treated with PBS with a daily dose for 2 days, on the second day the animals were inoculated with a new dose of PBS and for the next 7 days with a daily dose of PBS. • ii) PBS+KA+PBS regimen: 6 animals were initially treated with PBS with a daily dose for 2 days, on the second day the animals were inoculated with a dose of kainate at 25 mg/kg and for the next 7 days with a daily dose of PBS. • iii) NST0005+KA+NST0005 regimen: 6 animals were initially treated with NST0005 with a daily dose of 50 mg/kg for 2 days, on the second day the animals were inoculated with a dose of kainate at 25 mg/kg and for the next 7 days with a daily dose of NST0005 at 50 mg/kg.
Once the treatment time of 7 days ended, the animals were sacrificed and the brains were dissected. The brain samples were processed and included in paraffin. Fluoro-Jade B® (FJB) fluorescent stain was used in 5 μm thick sections to analyze the neurodegeneration of the hippocampus.
Based on the neuroprotection results shown in the previous section, the inventors decided to investigate if the neuroprotective effect of NST0005 in the hippocampus of mice against the administration of kainate (KA) was accompanied by the protection of another sign of neuronal damage such as neuritic dystrophy. To that end, the same experimental scheme was used as in section 6.1. Once the treatment period of 7 days ended, the animals were sacrificed and the brains were dissected. The brain samples were processed and included in paraffin. Bright field immunohistochemistry of the microtubule-associated protein 2 (MAP2) was used in 5 μm thick sections to analyze the neuritic dystrophy of the hippocampus.
Based on the neuroprotection results shown in the previous sections, the inventors decided to investigate if the neuroprotective effect of NST0005 in the hippocampus of mice against the administration of kainate (KA) was accompanied by the inhibition of neuronal death by apoptosis. To that end, the same experimental scheme was used as in section 6.1. Once the treatment period of 7 days ended, the animals were sacrificed and the brains were dissected. The brain samples were processed and included in paraffin. […]

Where [1] appears, read: NST0005 50 mg/kg i.p. at 24 and 0.5 h before KA, n=9.

Bounds are passed on as bounds.

The record followed here is patent publication US20110319484A1, “NEUROPROTECTIVE COMPOUNDS” (Parque Tecnologico de Ciencias de la Salud, priority 2009, published 2011).

Consider `C[C@H]1C=C2C=C[C@H](C)[C@H](CC[C@@H]3C[C@@H](O)CC(=O)O3)[C@H]2[C@@H](OC(=O)C(C)(C)C)C1` [NST0005], for which, in the experiment on mice (setting [1]), the “Animals with convulsions (%)” value came to 33.3%, the “Animals with status epilepticus (%)” value amounted to 22.2% and the “Mortality (%)” value worked out at 11.1%. For the same molecule, the “epilepsy level in Racine's scale reached” value with mice (NST0005 50 mg/kg i.p. pretreatment, at least 120 min observation) was less than 3. In addition, the “latency (time of onset of the first convulsions)” value in the experiment on mice (NST0005 50 mg/kg i.p. pretreatment, mean±SEM) stood at 108.9 ± 5.9 min. In the experiment with hippocampus of mice, the “neuritic dystrophy in the hippocampus (MAP2)” value is given as “significantly prevents the neuritic dystrophy”; the “neurodegeneration in the hippocampus (Fluoro-Jade B)” value was “completely protected against the neurodegeneration”; the “neuronal death by apoptosis in the hippocampus (Acridine Orange)” value is “prevents neuronal damage, neurodegeneration and also neuronal death by apoptosis”; the “neuronal death by necrosis in the hippocampus (hematoxylin and eosin)” value was “substantially prevents neuronal death by necrosis”.
